# Experiments:
# [1] = test system: bacteria; experiment: Antimicrobial efficacy / bacterial viability assay, summary statements without named organism; assay type: cell-based; conditions: equivalent concentrations of silver
# Description: Such an enhanced antimicrobial efficacy, for instance, may be attributed to a sustained release of silver, for example, either as a nanoparticle and/or its ionic form. By way of example, antimicrobial efficacy of the silica-silver nanocomposite particle was evaluated relative to that of the silver nanoparticle (AgNP) lacking the dielectric material encapsulation and aqueous silver nitrate (AgNO3) solutions, respectively, at equivalent concentrations of silver (if present). Note that, the silver nanoparticle and the silver nitrate, in this example, have been used as a positive growth control, while the silica nanoparticle (SiNP) lacking silver components, has been used as a negative growth control.
# In order to gain a better understanding of the antimicrobial efficacy of each material, we carried out a colony forming unit study over two time points, 1 and 4 hours. 96 well plates were prepared and incubated as described for M IC studies, and 10 μL samples from wells containing the concentrations of antimicrobial agents were taken at each time point. […] MH2 agar plates labeled by material and time point were then spotted with five 10 μL drops from each well at each concentration, allowed to dry in the sterile conditions of a biosafety cabinet, and then incubated 12-14 hours before colonies were counted. […]
# [2] = Color passivation study on coated tiles (thermal and UV treatments); assay type: physicochemical
# Description: White tiles were purchased from Home Depot, and scrubbed with acetone and Kim wipes to remove any oils which would inhibit materials from adhering well. After scrubbing and allowing the tiles to dry, about 50 μL samples of each material were spread over an area approximately 3cm by 3cm, and allowed to dry under ambient conditions. A picture was taken, and then tiles were exposed to long and shortwave UV radiation for 5 minutes, and briefly heated using a butane torch, and photographed again to observe the change in color of each material.
smiles,measurement,setting,value
"O=[N+]([O-])[O-].[Ag+] [AgNO3, silver nitrate]","antimicrobial efficacy, relative ranking",[1],most effective antimicrobial form of silver
same,color of coated tile after thermal and UV treatments,[2]; UV radiation for 5 minutes and brief heating with butane torch,dark brown/black color
same,color of coated tile before thermal and UV treatments,"[2]; white tiles, dried coating",do not show formation of color
